Laboratory results as given in patent publication US12404244B2, “Pan-KIT kinase inhibitor having quinoline structure and application thereof” (Tarapeutics Science Inc., priority 2018, dated 2025).
Read-outs that look alike come from different tables or passages of the source.

What was measured:
Assay type in all cases: cell-based
TEL-KIT/V559A-BaF3 = assay: Proliferation of TEL-KIT/V559A-BaF3 cells (CCK-8); conditions: Mus musculus, read-out: GI50 TEL-KIT/V559A-BaF3
Description: (§1) Compounds as provided herein were further evaluated for their inhibitory effects on proliferation of cancer cells by testing their effects on growth of cancer cells. In this example the following cells were used: primary mouse B cells BaF3 (purchased from ATCC), GIST-T1 cells of the human gastrointestinal stromal tumor cell line (expressing wild-type KIT gene) (purchased from Cosmo Bio Co., Ltd. (Japan)). The present lab further constructed and used the following: mouse Tel-Kit-BaF3 (stably expressing KIT wild-type kinase), mouse Tel-Kit/T670I-BaF3 (stably expressing KIT T670I mutant kinase), mouse Tel-Kit/V559A-BaF3 (stably expressing KIT V559A mutant kinase), mouse Tel-Kit/V559D-BaF3 (stably expressing KIT V559D mutant kinase), mouse Tel-Kit/V559G-BaF3 (stably expressing KIT V559G mutant kinase), mouse Tel-Kit/V560D-BaF3 (stably expressing KIT V560D mutant kinase), mouse Tel-Kit/L576P-BaF3 (stably expressing KIT L576P mutant kinase), mouse Tel-Kit/V654A-BaF3 (stably expressing KIT V654A mutant kinase), mouse Tel-Kit/V654A/V559D-BaF3 (stably expressing KIT V654A V559D mutant kinase), mouse Tel-Kit/T670E-BaF3 (stably expressing KIT T670E mutant kinase), mouse Tel-Kit/T670I/V559D-BaF3 (stably expressing KIT T670I V559D mutant kinase), mouse Tel-Kit/S709F-BaF3 (stably expressing KIT S709F mutant kinase), mouse Tel-Kit/D816E-BaF3 (stably expressing KIT D816E mutant kinase), mouse Tel-Kit/D816H-BaF3 (stably expressing KIT D816H mutant kinase), mouse Tel-Kit/D820E-BaF3 (stably expressing KIT D820E mutant kinase), mouse Tel-Kit/D820G-BaF3 (stably expressing KIT D820G mutant kinase), mouse Tel-Kit/D820Y-BaF3 (stably expressing KIT D820Y mutant kinase), mouse Tel-Kit/N822K-BaF3 (stably expressing KIT N822K mutant kinase), mouse Tel-Kit/Y823D-BaF3 (stably expressing KIT Y823D mutant kinase), mouse Tel-Kit/A829P-BaF3 (stably expressing KIT A829P mutant kinase), GIST-T1-T670I cells of the human gastrointestinal stromal tumor cell line (expressing KIT-T670I mutant gene). The above cell lines were constructed by: amplifying respectively the sequences of human KIT and various mutant kinase regions of KIT via PCR, inserting the fragments respectively into MSCV-Puro vectors having a N-terminal TEL fragment and/or a NPM fragment and/or a TPR fragment (purchased from Clontech), transfecting mouse BaF3 cells with the vectors by means of retrovirus to obtain stably transfected cells, removing the growth factor IL-3, and thereby eventually obtaining cell lines that depend on the transferred protein KIT or various mutants of KIT. […]

TEL-KIT/V559D-BaF3 = assay: Proliferation of TEL-KIT/V559D-BaF3 cells (CCK-8); conditions: Mus musculus, read-out: GI50 TEL-KIT/V559D-BaF3
Description: as §1

TEL-KIT/V559G-BaF3 = assay: Proliferation of TEL-KIT/V559G-BaF3 cells (CCK-8); conditions: Mus musculus, read-out: GI50 TEL-KIT/V559G-BaF3
Description: as §1

TEL-KIT/V560D-BaF3 = assay: Proliferation of TEL-KIT/V560D-BaF3 cells (CCK-8); conditions: Mus musculus, read-out: GI50 TEL-KIT/V560D-BaF3
Description: as §1

TEL-KIT/V654A/V559D-BaF3 = assay: Proliferation of TEL-KIT/V654A/V559D-BaF3 cells (CCK-8); conditions: Mus musculus, read-out: GI50 TEL-KIT/V654A/V559D-BaF3
Description: as §1

TEL-KIT/V654A-BaF3 = assay: Proliferation of TEL-KIT/V654A-BaF3 cells (CCK-8); conditions: Mus musculus, read-out: GI50 TEL-KIT/V654A-BaF3
Description: as §1

TEL-KIT/T670E-BaF3 = assay: Proliferation of TEL-KIT/T670E-BaF3 cells (CCK-8); conditions: Mus musculus, read-out: GI50 TEL-KIT/T670E-BaF3
Description: as §1

TEL-KIT/T670I/V559D-BaF3 = assay: Proliferation of TEL-KIT/T670I/V559D-BaF3 cells (CCK-8); conditions: Mus musculus, read-out: GI50 TEL-KIT/T670I/V559D-BaF3
Description: as §1

TEL-KIT/D816E-BaF3 = assay: Proliferation of TEL-KIT/D816E-BaF3 cells (CCK-8); conditions: Mus musculus, read-out: GI50 TEL-KIT/D816E-BaF3
Description: as §1

TEL-KIT/D820G-BaF3 = assay: Proliferation of TEL-KIT/D820G-BaF3 cells (CCK-8); conditions: Mus musculus, read-out: GI50 TEL-KIT/D820G-BaF3
Description: as §1

TEL-KIT/D820Y-BaF3 = assay: Proliferation of TEL-KIT/D820Y-BaF3 cells (CCK-8); conditions: Mus musculus, read-out: GI50 TEL-KIT/D820Y-BaF3
Description: as §1

TEL-KIT/N822K-BaF3 = assay: Proliferation of TEL-KIT/N822K-BaF3 cells (CCK-8); conditions: Mus musculus, read-out: GI50 TEL-KIT/N822K-BaF3
Description: as §1

TEL-KIT/A829P-BaF3 = assay: Proliferation of TEL-KIT/A829P-BaF3 cells (CCK-8); conditions: Mus musculus, read-out: GI50 TEL-KIT/A829P-BaF3
Description: as §1

GIST-T1/T670I = assay: Proliferation of GIST-T1/T670I cells (CCK-8); conditions: Homo sapiens, read-out: GI50 GIST-T1/T670I
Description: as §1, with “gene).” for “gene). The above cell lines were constructed by: amplifying respectively the sequences of human KIT and various mutant kinase regions of KIT via PCR, inserting the fragments respectively into MSCV-Puro vectors having a N-terminal TEL fragment and/or a NPM fragment and/or a TPR fragment (purchased from Clontech), transfecting mouse BaF3 cells with the vectors by means of retrovirus to obtain stably transfected cells, removing the growth factor IL-3, and thereby eventually obtaining cell lines that depend on the transferred protein KIT or various mutants of KIT.”
The cells after incubation were detected using CCK-8 (purchased from MedChem Express, Shanghai, China) cell viability assay kit (CCK-8 may be reduced by dehydrogenase in living cells to a highly water-soluble yellow formazan product, and the amount of the resultant formazan is proportional to the number of living cells), the number of living cells were quantified with a microplate reader, and GI50 of the compounds and the control compounds were calculated (the results shown in Table 2 and Table 3).

| SMILES | GI50 (TEL-KIT/V559A-BaF3; 72 hours, CCK-8) | GI50 (TEL-KIT/V559D-BaF3; 72 hours, CCK-8) | GI50 (TEL-KIT/V559G-BaF3; 72 hours, CCK-8) | GI50 (TEL-KIT/V560D-BaF3; 72 hours, CCK-8) | GI50 (TEL-KIT/V654A/V559D-BaF3; 72 hours, CCK-8) | GI50 (TEL-KIT/V654A-BaF3; 72 hours, CCK-8) | GI50 (TEL-KIT/T670E-BaF3; 72 hours, CCK-8) | GI50 (TEL-KIT/T670I/V559D-BaF3; 72 hours, CCK-8) | GI50 (TEL-KIT/D816E-BaF3; 72 hours, CCK-8) | GI50 (TEL-KIT/D820G-BaF3; 72 hours, CCK-8) | GI50 (TEL-KIT/D820Y-BaF3; 72 hours, CCK-8) | GI50 (TEL-KIT/N822K-BaF3; 72 hours, CCK-8) | GI50 (TEL-KIT/A829P-BaF3; 72 hours, CCK-8) | GI50 (GIST-T1/T670I; GISTT1, 72 hours, CCK-8) | further results |
| --- | --- | --- | --- | --- | --- | --- | --- | --- | --- | --- | --- | --- | --- | --- | --- |
| COc1cc2nccc(Oc3ccc(NC(=O)Cc4ccc(C)c(C(F)(F)F)c4)cc3)c2cc1OC [Example 1, N-(4-((6,7-dimethoxyquinolin-4-yl)oxy)phenyl)-2-(4-methyl-3-(trifluoromethyl)phenyl)acetamide] | – | – | – | – | – | – | – | – | – | – | – | – | – | – | GI50 (TEL-KIT/V559A-BaF3; 72 h): 16 nM; GI50 (TEL-KIT/V559D-BaF3; 72 h): 4 nM; GI50 (TEL-KIT/V559G-BaF3; 72 h): < 0.3 nM; GI50 (TEL-KIT/V560D-BaF3; 72 h): 5 nM; GI50 (TEL-KIT/V654A/V559D-BaF3; 72 h): 39 nM; GI50 (TEL-KIT/V654A-BaF3; 72 h): 110 nM; GI50 (TEL-KIT/T670E-BaF3; 72 h): 53 nM; GI50 (TEL-KIT/T670I/V559D-BaF3; 72 h): 48 nM; GI50 (TEL-KIT/D816E-BaF3; 72 h): 9 nM; GI50 (TEL-KIT/D820G-BaF3; 72 h): 9 nM; GI50 (TEL-KIT/D820Y-BaF3; 72 h): 6 nM; GI50 (TEL-KIT/N822K-BaF3; 72 h): 69 nM; GI50 (TEL-KIT/A829P-BaF3; 72 h): 8 nM; GI50 (GIST-T1/T670I; GISTT1, 72 h): 16 nM |
| COc1cc2nccc(Oc3ccc(NC(=O)Cc4ccc(Cl)c(C(F)(F)F)c4)cc3)c2cc1OC [Example 2, N-(4-((6,7-dimethoxyquinolin-4-yl)oxy)phenyl)-2-(4-chloro-3-(trifluoromethyl)phenyl)-acetamide] | 21 nM | 6 nM | < 0.3 nM | 4 nM | 42 nM | 320 nM | 71 nM | 45 nM | 16 nM | 9 nM | 3 nM | 26 nM | 22 nM | 11 nM | – |
| CCN(CC)CCNC(=O)c1c(C)[nH]c(/C=C2\C(=O)Nc3ccc(F)cc32)c1C [Sunitinib, reference compound] | 20 nM | 1 nM | 4 nM | 35 nM | 19 nM | 5 nM | 89 nM | 12 nM | 59 nM | 389 nM | 172 nM | 384 nM | 180 nM | 4 nM | – |
